From US20220023306A1, “USE OF A PPAR-DELTA AGONIST IN THE TREATMENT OF FATTY ACID OXIDATION DISORDERS (FAOD)” (Reneo Pharmaceuticals, Inc., priority 2019, published 2022)

Legend:
Format in all cases: cell-based
[1] = target: T1, LXRα (Homo sapiens, UniProt Q13133); experiment: activity on nuclear receptor LXRα
T1 sequence (Q13133 1-447): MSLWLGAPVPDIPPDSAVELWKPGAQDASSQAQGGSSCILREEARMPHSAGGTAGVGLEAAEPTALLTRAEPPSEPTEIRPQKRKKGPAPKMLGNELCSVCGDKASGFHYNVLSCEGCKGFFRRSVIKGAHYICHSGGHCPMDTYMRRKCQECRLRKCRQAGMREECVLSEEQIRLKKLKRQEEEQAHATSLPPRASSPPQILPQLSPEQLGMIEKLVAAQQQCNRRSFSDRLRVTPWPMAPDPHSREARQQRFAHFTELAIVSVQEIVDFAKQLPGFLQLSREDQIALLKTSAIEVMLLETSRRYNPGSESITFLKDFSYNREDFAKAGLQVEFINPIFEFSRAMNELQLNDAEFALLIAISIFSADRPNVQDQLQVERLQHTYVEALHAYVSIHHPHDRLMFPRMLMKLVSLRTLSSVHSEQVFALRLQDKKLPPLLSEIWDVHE

[2] = tested on: human retinoid X receptor (hRXR); experiment: human retinoid X receptor (hRXR) activity
[3] = target: T2, LXRβ (Homo sapiens, UniProt P55055); experiment: activity on nuclear receptor LXRβ
T2 sequence (P55055 1-460): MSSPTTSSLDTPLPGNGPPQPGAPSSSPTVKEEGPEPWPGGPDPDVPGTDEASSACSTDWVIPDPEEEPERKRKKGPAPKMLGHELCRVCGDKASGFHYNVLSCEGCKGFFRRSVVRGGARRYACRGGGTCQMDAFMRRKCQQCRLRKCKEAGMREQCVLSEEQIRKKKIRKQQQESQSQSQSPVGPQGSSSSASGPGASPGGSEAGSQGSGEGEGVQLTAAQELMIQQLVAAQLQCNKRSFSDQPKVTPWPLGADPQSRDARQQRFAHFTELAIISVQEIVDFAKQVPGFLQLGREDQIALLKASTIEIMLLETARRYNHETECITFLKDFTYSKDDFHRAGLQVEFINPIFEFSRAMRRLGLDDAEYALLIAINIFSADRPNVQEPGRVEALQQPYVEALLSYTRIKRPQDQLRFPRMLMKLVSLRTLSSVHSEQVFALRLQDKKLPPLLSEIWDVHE

[4] = target: T3, hPPARγ (Homo sapiens, UniProt P37231); experiment: PPAR transient transactivation assay, hPPARγ
T3 construct: expressed in transfected cells; host or cells: HEK293
T3 sequence (P37231 238-503 limits assumed): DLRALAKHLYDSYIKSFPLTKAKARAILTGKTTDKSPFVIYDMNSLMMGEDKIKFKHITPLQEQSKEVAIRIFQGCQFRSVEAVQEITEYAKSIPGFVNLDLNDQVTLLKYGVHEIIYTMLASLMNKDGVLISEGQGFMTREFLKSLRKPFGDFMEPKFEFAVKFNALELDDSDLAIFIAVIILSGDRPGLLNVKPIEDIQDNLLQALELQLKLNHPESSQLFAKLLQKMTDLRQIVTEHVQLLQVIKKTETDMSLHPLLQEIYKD
Procedure: “Activation” herein is defined as the abovementioned downstream response, which in the case of PPAR's is gene transcription. Gene transcription, in some cases, is measured indirectly as downstream production of proteins reflective of the activation of the particular PPAR subtype under study. Alternatively, an artificial reporter construct, in some cases, is employed to study the activation of the individual PPAR's expressed in cells. The ligand binding domain of the particular receptor to be studied, in some embodiments, is fused to the DNA binding domain of a transcription factor, which produces convenient laboratory readouts, such as the yeast GAL4 transcription factor DNA binding domain. The fusion protein, in some cases, is transfected into a laboratory cell line along with a Gal4 enhancer, which effects the expression of the luciferase protein. When such a system is transfected into a laboratory cell line, binding of a receptor agonist to the fusion protein will result in light emission.
The PPAR transient transactivation assay, in some cases, is based on transient transfection into human HEK293 cells of two plasmids encoding a chimeric test protein and a reporter protein respectively. […] The amount of luciferase protein is measured by light emission after addition of the appropriate substrate. […]

activity on LXRα [1]: did not show any | hRXR activity [2]: did not show any | activity on LXRβ [3]: did not show any | activity on PPARγ in transactivation assays [4]: negligible activity | type of agonism on PPARγ [4]: partial agonist
Structure (SMILES): Cc1cc(OC/C=C(/c2ccc(F)cc2)c2ccc(C#CCN3CCOCC3)cc2)ccc1OCC(=O)O [Compound 1, (E)-[4-[3-(4-Fluorophenyl)-3-[4-[3-(morpholin-4-yl)propynyl]phenyl]allyloxy]-2-methyl-phenoxy]acetic acid]
